Source: patent US5429774A, “Benzopyran compounds” (Transitions Optical, Inc., priority 1994, dated 1995)

Assay: photochromic response on an optical bench in ethyl cellulose resin (lambda max, sensitivity, saturation optical density, bleach rate)
Assay type: physicochemical
Conditions: for Δ OD @ SAT (saturation optical density): UV exposure 15 minutes; for Δ OD @ SAT (saturation optical density) / Sensitivity Δ OD/MIN / Bleach rate T 1/2: ethyl cellulose resin; for Lambda max Band A / Lambda max Band B: activated (colored) form, in ethyl cellulose resin; for Sensitivity Δ OD/MIN: first five (5) seconds of UV exposure, expressed on a per minute basis, 75° F. (23.9° C.); for Bleach rate T 1/2: time to one half the highest absorbance at room temperature (72° F., 22.2° C.) after removal of activating light; for sensitivity versus Comparative Examples (in words): comparison of Table 1 results
Experimental: The photochromic compounds prepared in the Examples and the Comparative Examples were incorporated into an ethyl cellulose resin by the following procedure. About 30 milligrams of the photochromic compound was added to 2.0 grams of a 10 weight percent ethyl cellulose solution in toluene. The photochromic compound was dissolved by warming and stirring on a steam bath. Approximately 2.0 grams of the resultant solution was deposited on the edge of a 75 by 25 millimeter (mm) glass slide. Using a draw down bar, a 0.2 mm layer of photochromic resin solution was placed evenly on the slide and permitted to dry.
The photochromic test samples prepared in Part A were tested for photochromic response rates on an optical bench. Prior to testing on the optical bench, the photochromic test samples were exposed to 365 nanometer (nm) ultraviolet light for about 15 minutes to activate the photochromic compounds and then placed into a 76° C. oven for about 15 minutes to bleach or inactivate the photochromic compounds. The test samples were then cooled to room temperature, exposed to fluorescent room lighting for at least 2 hours and then kept covered for at least 2 hours prior to testing on an optical bench maintained at 75° F. (23.9° C.).
The optical bench comprises a 150 watt Xenon arc lamp, a tungsten lamp, power supplies for both lamps, condensing lenses as needed to maintain collimated light beams from both lamps, a remote controlled shutter, a copper sulfate bath acting as a heat sink for the arc lamp, a Schott WG-320 nm cut-off filter which removes short wavelength radiation, neutral density filter(s), a sample holder in which the sample to be tested is inserted, a photopic filter, light detector, and radiometer assembly, a strip chart recorder, and a means for maintaining the alignment of the aforestated components during testing.
Change in optical density (ΔOD) of a sample was determined by inserting a photochromic test sample in the bleached state into the sample holder, adjusting the transmittance scale to 100%, opening the shutter from the Xenon lamp to provide ultraviolet radiation to change the sample from the bleached state to an activated (darkened) state, measuring the transmittance through the sample. The transmittance was measured by directing a beam of light from the tungsten lamp at a small angle normal to the surface of the sample, through the sample, and to a photopic filter, light detector and radiometer assembly. The photopic filter passes wavelengths such that the detector mimics the response of the human eye and produces output signals that are processed by the radiometer. The change in optical density was calculated according to the formula Δ OD=log(100/% Ta) where % Ta is the percent transmittance in the activated state and the logarithm is to the base 10.
The Δ OD/Min, which represents the sensitivity of the photochromic compound's response to UV light, was measured over the first five (5) seconds of UV exposure, then expressed on a per minute basis. The saturation optical density (OD) was taken under identical conditions as the Δ OD/Min, except UV exposure was continued for 15 minutes. The lambda max value, which is the maximum absorption of the activated (colored) form of the photochromic compound in ethyl cellulose resin, may occur at one or two wavelengths reported as Band A and Band B in Table 1. The Bleach Rate T 1/2 is the time interval in seconds for the absorbance of the activated form of the benzopyran in the test sample to reach one half the highest absorbance at room temperature (72° F., 22.2° C.) after removal of the source of activating light.

Row | Δ OD @ SAT (saturation optical density) | Lambda max Band A | Sensitivity Δ OD/MIN [OD/MIN] | Bleach rate T 1/2 [min] | Lambda max Band B | sensitivity versus Comparative Examples (in words) | Molecule
1 | 0.86 | 448 | 0.49 | > 20 | 507 | greater than Comparative Example 2 | COc1ccccc1C1(c2cc3ccccc3o2)C=Cc2cc3oc4ccccc4c3cc2O1 (stereo not drawn) [Example 6, 2-(2-methoxyphenyl)-2-(benzofur-2-yl)-2H-benzo(b)furo[2,3-g]-benzopyran]
2 | 0.23 | 476 | 0.25 | 3.77 | 545 | – | C1=CC(c2ccccc2)(c2cc3ccccc3s2)Oc2ccc3oc4ccccc4c3c21 (stereo not drawn) [Example 8, 3-phenyl-3-(benzothiophen-2-yl)-3H-benzo(b)furo[3,2-f]-1-benzopyran]
3 | 0.18 | 444 | 0.22 | 2.97 | 515 | – | C1=CC(c2ccccc2)(c2csc3ccccc23)Oc2ccc3oc4ccccc4c3c21 (stereo not drawn) [Example 9, 3-phenyl-3-(benzothiophen-3-yl)-3H-benzo(b)furo[3,2-f]-1-benzopyran]
4 | 0.98 | 482 | 0.66 | > 20 | 532 | greater than Comparative Example 2 | COc1ccccc1C1(c2cc3ccccc3o2)C=Cc2c(ccc3sc4ccccc4c23)O1 (stereo not drawn) [Example 10, 3-(2-methoxyphenyl)-3-(benzofur-2-yl)-3H-benzo(b)thieno[3,2-f]-1-benzopyran]

Second part, the molecule before the results:

Row | Molecule | Δ OD @ SAT (saturation optical density) | Lambda max Band A | Sensitivity Δ OD/MIN [OD/MIN] | Bleach rate T 1/2 [min] | Lambda max Band B | sensitivity versus Comparative Examples (in words)
5 | 3-(2-fluorophenyl)-3-(benzofur-2-yl)-3H-benzo(b)thieno[3,2-f]-1-benzopyran [Example 7] | 0.27 | 482 | 0.27 | 10.3 | – | –
6 | C1=CC(c2ccccc2)(c2ccccc2)Oc2ccc3ccccc3c21 [Comparative Example 1, 3,3-diphenyl-3H-naphtho [2,1-b]pyran, reference compound] | 0.31 | 432 | 0.87 | 0.533 | – | –
7 | C1=CC(c2ccccc2)(c2ccccc2)Oc2ccc3oc4ccccc4c3c21 [Comparative Example 2, 3,3-diphenyl-(3H)-benzo(b)furo[3,2-f]-1-benzopyran, reference compound] | 0.18 | 430 | 0.42 | 1.42 | 522 | –
8 | C1=CC(c2ccccc2)(c2cc3ccccc3o2)Oc2ccc3ccccc3c21 (stereo not drawn) [Example 1, 3-phenyl-3-(benzofur-2-yl)-3H-naphtho[2,1-b]pyran] | 0.95 | 467 | 1.15 | 5.75 | – | greater than Comparative Examples 1 and 2
9 | Fc1ccccc1C1(c2cc3ccccc3o2)C=Cc2c(ccc3ccccc23)O1 (stereo not drawn) [Example 2, 3-(2-fluorophenyl)-3-(benzofur-2-yl)-3H-naphtho[2,1-b]pyran] | 0.84 | 462 | 0.59 | > 30 | – | greater than Comparative Example 2
10 | C1=CC(c2ccccc2)(c2cc3ccccc3s2)Oc2ccc3ccccc3c21 (stereo not drawn) [Example 3, 3-phenyl-3-(benzothiophen-2-yl)-3H-naphtho[2,1-b]pyran] | 0.52 | 460 | 0.76 | 2.03 | – | greater than Comparative Example 2
11 | C1=CC(c2ccccc2)(c2cc3ccccc3o2)Oc2ccc3oc4ccccc4c3c21 (stereo not drawn) [Example 4, 3-phenyl-3-(benzofur-2-yl)-3H-benzo(b)furo[3,2-f]-1-benzopyran] | 0.34 | 453 | 0.26 | 5.18 | 482 | –
12 | C1=CC(c2ccccc2)(c2csc3ccccc23)Oc2ccc3ccccc3c21 (stereo not drawn) [Example 5, 3-phenyl-3-(benzothiophen-3-yl)-3H-naphtho[2,1-b]pyran] | 0.34 | 440 | 0.62 | 1.55 | – | greater than Comparative Example 2
